Data as given in patent US9012518B2, “Compositions and methods of delivery of pharmacological agents” (Abraxis BioScience, LLC, priority 2002, dated 2015).
Counter-ions that a name gives are not always drawn. Blank lines part the entries; values can stand above or below the compound they belong to.

Key:
[1] = cited from earlier work
immobilized albumin = immobilized albumin (Homo sapiens, UniProt P02768); test: Competition of added albumin with binding of fluorescent paclitaxel to immobilized albumin; conditions: similar effect with binding to endothelial cells
Text: Albumin was immobilized on a microtiter plate. […] Thus invention compositions having lower amounts of albumin are preferred.

[2] = 22.5° C.; cited from earlier work

immobilized albumin, sequence (P02768 25-609): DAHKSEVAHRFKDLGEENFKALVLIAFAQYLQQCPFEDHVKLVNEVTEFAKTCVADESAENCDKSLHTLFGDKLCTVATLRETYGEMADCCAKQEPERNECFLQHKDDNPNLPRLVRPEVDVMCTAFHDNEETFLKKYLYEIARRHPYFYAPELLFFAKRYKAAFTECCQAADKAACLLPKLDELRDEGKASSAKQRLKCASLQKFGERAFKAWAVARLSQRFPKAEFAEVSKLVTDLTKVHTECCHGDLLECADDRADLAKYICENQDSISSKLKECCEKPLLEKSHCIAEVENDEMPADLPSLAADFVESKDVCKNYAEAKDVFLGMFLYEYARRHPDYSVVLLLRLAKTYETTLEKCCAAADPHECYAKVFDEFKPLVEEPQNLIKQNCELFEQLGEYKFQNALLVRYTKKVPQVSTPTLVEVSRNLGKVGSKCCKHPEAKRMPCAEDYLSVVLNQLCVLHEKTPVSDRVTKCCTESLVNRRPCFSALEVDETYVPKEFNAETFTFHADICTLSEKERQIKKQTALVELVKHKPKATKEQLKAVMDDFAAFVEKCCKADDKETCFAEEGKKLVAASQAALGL

Compound: CC(=O)N(O)CCCCCNC(=O)CCC(=O)N(O)CCCCCNC(=O)CCC(=O)N(O)CCCCCN [Deferoxamine mesylate USP, N-[5-[3-[(5-aminopentyl)-hydroxycarbamoyl]-propion-amido]pentyl]-3[[5-((N-hydroxyacetamido)pentyl]-carbamoyl]propionohydroxamic acid monomethanesulfonate (salt)]
- solubility in water [1]: freely soluble in water

- binding of fluorescent paclitaxel to immobilized albumin as added albumin increased (immobilized albumin): a corresponding decrease in binding
Compound: albumin

Compound: CC(C)c1cccc(C(C)C)c1O [propofol, 2,6-diisopropylphenol]
- maximum solubility in water [2]: 1.0 ± 0.02 µM
